Assay results: patent US20210330606A1, “GLUCOSE CONSUMPTION ACCELERATOR AND GLYCOLYSIS ACCELERATOR” (SHINKO SANGYO Co., Ltd., priority 2018, published 2021)

Columns and labels:
[1] = tested on: Rat-derived fibroblasts (Py-3Y1-S2, subculture strain); assay: Glucose consumption of rat-derived fibroblasts (relative value, control = 100); type: cell-based
Source text: As drugs, 2-amino-1-cyclohexylethanol (Matrix Biochemicals), 2-aminoethanol (Tokyo Chemical Industry Co., Ltd.), 1-amino-2-propanol (Wako Pure Chemical Industries, Ltd.), 2-amino-1-phenylethanol (Tokyo Chemical Industry Co., Ltd.), 1, 3-bis[tris(hydroxymethyl)-methylamino]propane (Tokyo Chemical Industry Co., Ltd.), N-cyclohexylethanolamine (Tokyo Chemical Industry Co., Ltd.), diethanolamine (Wako Pure Chemical Industries, Ltd.), diethylamine (Wako Pure Chemical Industries, Ltd.), dipropylamine (Tokyo Chemical Industry Co., Ltd.), HEPES sodium salt (MP Biomedicals), metoprolol tartrate (Tokyo Chemical Industry Co., Ltd.), morpholine (Wako Pure Chemical Co., Ltd.), octopamine (MP Biomedicals), propylamine (Tokyo Chemical Industry Co., Ltd.), triethylamine (Wako Pure Chemical Co., Ltd.), timolol maleate (Wako Pure Chemical Industries, Ltd.) and tris(hydroxymethyl)aminomethane (Wako Pure Chemical Industries, Ltd.) were used. Each drug was dissolved in distilled water to prepare a sample.
In the culture, DMEM (Nissui Pharmaceutical Co., Ltd.) was used as a culture medium. […] As a control of the drug, the culture was performed in the same manner except that distilled water to which the drug was not added was added to the culture solution instead of the sample.
After the addition of the drug, the glucose concentration of each of the culture solutions was measured immediately after the start of the culture and after the completion of the culture. The glucose concentration was measured using a glucose assay kit (Waco). Then, the glucose concentration after the completion of the culture was divided by the glucose concentration immediately after the start of the culture (5.6 mmol per liter) to calculate the glucose consumption.
The fibroblasts were cultured. […] Streptozotocin, alloxan, and nicotinamide are drugs all known to produce symptoms of diabetes when administered to the body.
Next, samples of streptozotocin, alloxan, and nicotinamide plus 2-amino-1-phenylethanol (2-A-1-P) were prepared in the same manner. The concentration of 2-A-1-P was 1 mg/ml. The relative value of the glucose consumption was calculated in the same manner.
The fibroblasts were cultured.
The concentration of 2-A-1-P was 0.5 mg/ml. The relative value of the glucose consumption was calculated in the same manner.

[2] = tested on: Rat-derived fibroblasts (Py-3Y1-S2, subculture strain); assay: Lactate concentration in culture solution of fibroblasts (relative value, control = 100); type: cell-based; conditions: drug 1 mg/ml, control = 100 (FIG. 7A)
Procedure: First, samples of 2-amino-1-cyclohexylethanol and 2-amino-1-phenylethanol were prepared in the same manner as in Example 1. The fibroblasts and the liver cancer cells were cultured under the same conditions as in Examples 1 and 5. […] As a control, the culture was performed in the same manner except that distilled water to which the drug was not added was added to the culture solution instead of the sample.
After the addition of the drug, the culture solution was diluted so that the weight ratio of the culture solution to distilled water was 1:19, and the lactate concentration of the diluted culture solution was measured. The lactate concentration was measured using a lactate assay kit (product name: Lactate Assay Kit-WST, product of Dojindo Laboratories).

NCC(O)c1ccccc1 (stereo not drawn) [2-amino-1-phenylethanol]
relative value of glucose consumption ([1]; Example 2, fibroblasts, drug 0.1 mg/ml, control = 100): about 130 | relative value of glucose consumption ([1]; Example 2, fibroblasts, drug 0.25 mg/ml, control = 100): about 140 | relative value of glucose consumption ([1]; Example 2, fibroblasts, drug 0.5 mg/ml, control = 100): about 160 | relative value of glucose consumption ([1]; Example 3, 2-A-1-P 1 mg/ml in addition to alloxan 1 mg/ml): ≥ 100 | relative value of glucose consumption ([1]; Example 3, 2-A-1-P 1 mg/ml in addition to nicotinamide 1 mg/ml): ≥ 100 | relative value of glucose consumption ([1]; Example 3, 2-A-1-P 1 mg/ml in addition to streptozotocin 1 mg/ml): ≥ 100 | relative value of glucose consumption ([1]; Example 4, 2-A-1-P 0.5 mg/ml in addition to V2O5): about 140 | relative value of glucose consumption ([1]; Example 4, 2-A-1-P 0.5 mg/ml in addition to concanavalin A 100 μg/ml): about 150 | relative value of glucose consumption ([1]; Example 4, 2-A-1-P 0.5 mg/ml in addition to vanadium): about 145 | relative value of glucose consumption ([1]; fibroblasts, drug 0.5 mg/ml, 12 to 24 hours, control = 100 (FIG. 1A, 2A)): significantly increased glucose consumption | relative value of glucose consumption ([1]; fibroblasts, drug 1 mg/ml, 12 to 24 hours, control = 100 (FIG. 1B, 2B)): significantly increased glucose consumption | relative value of lactate concentration [2]: about 185
